Measurements as given in PubChem BioAssay AID1918943 (Molecular Pharmacology Branch, DTP, NCI, 2023).
Where “and” joins values, the source holds several entries; their conditions need not be identical. Identical values can stand only once.

Tested on: 855422-203-R-J1-PDC complex spheroid viability
Test: Anticancer human tumor 855422-203-R-J1-PDC patient-derived bladder carcinoma cell line growth inhibition
Details: for viability, T/C: stronger effect = lower value
Outline: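 Drug combinations with the LSD1 inhibitor iadademstat tested on tumor cells co-cultured as spheroids with endothelial cells and mesenchymal stem cells. Concentrations descended in half-log increments from clinical Cmax or 10 microM.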

[1] = curve of first compound, second compound 0.1 µM
[2] = curve of first compound, second compound 0.316 µM
[3] = curve of first compound, second compound 1 µM
[4] = curve of first compound, second compound 3.16 µM
[5] = curve of first compound, second compound 10 µM
[6] = second compound 0.1 µM, first compound 0.000949 µM
[7] = second compound 0.1 µM, first compound 0.003 µM
[8] = second compound 0.1 µM, first compound 0.00949 µM
[9] = second compound 0.1 µM, first compound 0.03 µM
[10] = second compound 0.1 µM, first compound 0.0949 µM
[11] = second compound 0.1 µM, first compound 0.3 µM
[12] = second compound 0.316 µM, first compound 0.000949 µM
[13] = second compound 0.316 µM, first compound 0.003 µM
[14] = second compound 0.316 µM, first compound 0.00949 µM
[15] = second compound 0.316 µM, first compound 0.03 µM
[16] = second compound 0.316 µM, first compound 0.0949 µM
[17] = second compound 0.316 µM, first compound 0.3 µM
[18] = second compound 1 µM, first compound 0.000949 µM
[19] = second compound 1 µM, first compound 0.003 µM
[20] = second compound 1 µM, first compound 0.00949 µM
[21] = second compound 1 µM, first compound 0.03 µM
[22] = second compound 1 µM, first compound 0.0949 µM
[23] = second compound 1 µM, first compound 0.3 µM
[24] = second compound 3.16 µM, first compound 0.000949 µM
[25] = second compound 3.16 µM, first compound 0.003 µM
[26] = second compound 3.16 µM, first compound 0.00949 µM
[27] = second compound 3.16 µM, first compound 0.03 µM
[28] = second compound 3.16 µM, first compound 0.0949 µM
[29] = second compound 3.16 µM, first compound 0.3 µM
[30] = second compound 10 µM, first compound 0.000949 µM
[31] = second compound 10 µM, first compound 0.003 µM
[32] = second compound 10 µM, first compound 0.00949 µM
[33] = second compound 10 µM, first compound 0.03 µM
[34] = second compound 10 µM, first compound 0.0949 µM
[35] = second compound 10 µM, first compound 0.3 µM
[36] = second compound 0.1 µM, first compound 0.000316 µM
[37] = second compound 0.1 µM, first compound 0.001 µM
[38] = second compound 0.1 µM, first compound 0.00316 µM
[39] = second compound 0.1 µM, first compound 0.01 µM
[40] = second compound 0.1 µM, first compound 0.0316 µM
[41] = second compound 0.1 µM, first compound 0.1 µM
[42] = second compound 0.316 µM, first compound 0.000316 µM
[43] = second compound 0.316 µM, first compound 0.001 µM
[44] = second compound 0.316 µM, first compound 0.00316 µM
[45] = second compound 0.316 µM, first compound 0.01 µM
[46] = second compound 0.316 µM, first compound 0.0316 µM
[47] = second compound 0.316 µM, first compound 0.1 µM
[48] = second compound 1 µM, first compound 0.000316 µM
[49] = second compound 1 µM, first compound 0.001 µM
[50] = second compound 1 µM, first compound 0.00316 µM
[51] = second compound 1 µM, first compound 0.01 µM
[52] = second compound 1 µM, first compound 0.0316 µM
[53] = second compound 1 µM, first compound 0.1 µM
[54] = second compound 3.16 µM, first compound 0.000316 µM
[55] = second compound 3.16 µM, first compound 0.001 µM
[56] = second compound 3.16 µM, first compound 0.00316 µM
[57] = second compound 3.16 µM, first compound 0.01 µM
[58] = second compound 3.16 µM, first compound 0.0316 µM
[59] = second compound 3.16 µM, first compound 0.1 µM
[60] = second compound 10 µM, first compound 0.000316 µM
[61] = second compound 10 µM, first compound 0.001 µM
[62] = second compound 10 µM, first compound 0.00316 µM
[63] = second compound 10 µM, first compound 0.01 µM
[64] = second compound 10 µM, first compound 0.0316 µM
[65] = second compound 10 µM, first compound 0.1 µM
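Note: drug exposure lasted 7 days starting on day 3 after seeding.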
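Throughout, for viability, T/C: luminescence viability as percent of DMSO vehicle wells = 100%.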

SMILES: Nc1ncn(C2CC(O)C(CO)S2)c(=O)n1 (configuration not stated) + NC1CC1c1ccc(-c2cccc(O)c2)cc1
- IC50 [1]: > 300 nM
- IC50 [2]: > 300 nM
- IC50 [3]: > 300 nM
- IC50 [4]: > 300 nM
- IC50 [5]: > 300 nM
- viability, T/C [6]: 94.4%
- viability, T/C [7]: 95.2%
- viability, T/C [8]: 92.8%
- viability, T/C [9]: 105%
- viability, T/C [10]: 93.2%
- viability, T/C [11]: 83.5%
- viability, T/C [12]: 87.7%
- viability, T/C [13]: 91.2%
- viability, T/C [14]: 92.3%
- viability, T/C [15]: 103%
- viability, T/C [16]: 97.5%
- viability, T/C [17]: 77.9%
- viability, T/C [18]: 87.3%
- viability, T/C [19]: 88.6%
- viability, T/C [20]: 93.5%
- viability, T/C [21]: 99.2%
- viability, T/C [22]: 95.4%
- viability, T/C [23]: 73.1%
- viability, T/C [24]: 81.9%
- viability, T/C [25]: 84.9%
- viability, T/C [26]: 91.3%
- viability, T/C [27]: 93.4%
- viability, T/C [28]: 93.7%
- viability, T/C [29]: 73.4%
- viability, T/C [30]: 85.9%
- viability, T/C [31]: 83.3%
- viability, T/C [32]: 85.6%
- viability, T/C [33]: 94.3%
- viability, T/C [34]: 84.4%
- viability, T/C [35]: 68.8%

SMILES: CC[C@@]1(O)C(=O)OCc2c1cc1n(c2=O)Cc2cc3c(CN(C)C)c(O)ccc3nc2-1 + NC1CC1c1ccc(-c2cccc(O)c2)cc1
- IC50 [1]: 8.59 nM
- IC50 [2]: 7.94 nM
- IC50 [3]: 7.85 nM
- IC50 [4]: 6.85 nM
- IC50 [5]: 6.35 nM
- viability, T/C [36]: 97.8%
- viability, T/C [37]: 102%
- viability, T/C [38]: 98.1%
- viability, T/C [39]: 42.7%
- viability, T/C [40]: 21.8%
- viability, T/C [41]: 19.4%
- viability, T/C [42]: 98.9%
- viability, T/C [43]: 102%
- viability, T/C [44]: 92.8%
- viability, T/C [45]: 39.1%
- viability, T/C [46]: 22.8%
- viability, T/C [47]: 19.4%
- viability, T/C [48]: 90.5%
- viability, T/C [49]: 94.6%
- viability, T/C [50]: 84.8%
- viability, T/C [51]: 40.5%
- viability, T/C [52]: 22.8%
- viability, T/C [53]: 18.8%
- viability, T/C [54]: 85.7%
- viability, T/C [55]: 90.3%
- viability, T/C [56]: 87.2%
- viability, T/C [57]: 31.8%
- viability, T/C [58]: 20.9%
- viability, T/C [59]: 18.6%
- viability, T/C [60]: 81.5%
- viability, T/C [61]: 97.3%
- viability, T/C [62]: 82.2%
- viability, T/C [63]: 28.9%
- viability, T/C [64]: 21.5%
- viability, T/C [65]: 16.3%

SMILES: CC(C)CC(NC(=O)CNC(=O)c1cc(Cl)ccc1Cl)B1OC(=O)CC(CC(=O)O)(C(=O)O)O1 (configuration not stated) + NC1CCC(NC2CC2c2ccccc2)CC1
- IC50 [1]: 1.8 nM
- IC50 [2]: 1.7 nM
- IC50 [3]: 1.67 nM
- IC50 [4]: 1.63 nM
- IC50 [5]: 1.52 nM
- viability, T/C [36]: 95.9%
- viability, T/C [37]: 89.3%
- viability, T/C [38]: 12.2%
- viability, T/C [39]: 1.62%
- viability, T/C [40]: 0.03%
- viability, T/C [41]: 0.09%
- viability, T/C [42]: 100%
- viability, T/C [43]: 90.4%
- viability, T/C [44]: 3.11%
- viability, T/C [45]: 1.91%
- viability, T/C [46]: 0.02%
- viability, T/C [47]: 0.09%
- viability, T/C [48]: 91.9%
- viability, T/C [49]: 87%
- viability, T/C [50]: 3.87%
- viability, T/C [51]: 0.69%
- viability, T/C [52]: 0.02%
- viability, T/C [53]: 0.1%
- viability, T/C [54]: 89.8%
- viability, T/C [55]: 85.3%
- viability, T/C [56]: 2.25%
- viability, T/C [57]: 0.69%
- viability, T/C [58]: 0.04%
- viability, T/C [59]: 0.1%
- viability, T/C [60]: 77.6%
- viability, T/C [61]: 76.9%
- viability, T/C [62]: 2.8%
- viability, T/C [63]: 0.29%
- viability, T/C [64]: 0.12%
- viability, T/C [65]: 3.15%

SMILES: CCc1c2c(nc3ccc(O)cc13)-c1cc3c(c(=O)n1C2)COC(=O)[C@]3(O)CC + NC1CC1c1ccc(-c2cccc(O)c2)cc1
- IC50 [1]: < 0.949 nM
- IC50 [2]: < 0.949 nM
- IC50 [3]: < 0.949 nM
- IC50 [4]: < 0.949 nM
- IC50 [5]: < 0.949 nM
- viability, T/C [6]: 20.8%
- viability, T/C [7]: 14.2%
- viability, T/C [8]: 9.58%
- viability, T/C [9]: 6.75%
- viability, T/C [10]: 4.82%
- viability, T/C [11]: 3.56%
- viability, T/C [12]: 17.1%
- viability, T/C [13]: 15.1%
- viability, T/C [14]: 10.9%
- viability, T/C [15]: 6.65%
- viability, T/C [16]: 4.88%
- viability, T/C [17]: 2.78%
- viability, T/C [18]: 15.7%
- viability, T/C [19]: 13%
- viability, T/C [20]: 10.2%
- viability, T/C [21]: 6.49%
- viability, T/C [22]: 3.41%
- viability, T/C [23]: 2.05%
- viability, T/C [24]: 15.7%
- viability, T/C [25]: 13.7%
- viability, T/C [26]: 9.86%
- viability, T/C [27]: 6.91%
- viability, T/C [28]: 4.7%
- viability, T/C [29]: 2.44%
- viability, T/C [30]: 17.6%
- viability, T/C [31]: 12.6%
- viability, T/C [32]: 8.31%
- viability, T/C [33]: 5.99%
- viability, T/C [34]: 2.54%
- viability, T/C [35]: 1.14%

SMILES: COc1ccc([C@@H](O)c2cc(-c3ncnc4cc(N5CCOCC5)ccc34)c(F)cc2Cl)nn1
- viability, T/C (compound 0.0316 µM): 95% and 94.1%
- viability, T/C (compound 0.1 µM): 94.7% and 94.4%
- viability, T/C (compound 0.316 µM): 79.5% and 92.2%
- viability, T/C (compound 1 µM): 74.3% and 85.5%
- viability, T/C (compound 3.16 µM): 53.7% and 69.3%
- viability, T/C (compound 10 µM): 38.6% and 39.6%
- IC50 (curve of compound): 4480 nM and 6680 nM

SMILES: O=C(c1cc(Cc2n[nH]c(=O)c3ccccc23)ccc1F)N1CCN(C(=O)C2CC2)CC1 + NC1CC1c1ccc(-c2cccc(O)c2)cc1
- IC50 [1]: > 10000 nM
- IC50 [2]: > 10000 nM
- IC50 [3]: > 10000 nM
- IC50 [4]: > 10000 nM
- IC50 [5]: > 10000 nM
- viability, T/C [40]: 98.9%
- viability, T/C [41]: 99.2%
- viability, T/C (second compound 0.1 µM, first compound 0.316 µM): 99.8%
- viability, T/C (second compound 0.1 µM, first compound 1 µM): 98%
- viability, T/C (second compound 0.1 µM, first compound 3.16 µM): 102%
- viability, T/C (second compound 0.1 µM, first compound 10 µM): 84%
- viability, T/C [46]: 91.1%
- viability, T/C [47]: 87.4%
- viability, T/C (second compound 0.316 µM, first compound 0.316 µM): 97.2%
- viability, T/C (second compound 0.316 µM, first compound 1 µM): 98.4%
- viability, T/C (second compound 0.316 µM, first compound 3.16 µM): 101%
- viability, T/C (second compound 0.316 µM, first compound 10 µM): 81.4%
- viability, T/C [52]: 90.1%
- viability, T/C [53]: 87.7%
- viability, T/C (second compound 1 µM, first compound 0.316 µM): 89.3%
- viability, T/C (second compound 1 µM, first compound 1 µM): 95.5%
- viability, T/C (second compound 1 µM, first compound 3.16 µM): 90.3%
- viability, T/C (second compound 1 µM, first compound 10 µM): 80.8%
- viability, T/C [58]: 94.4%
- viability, T/C [59]: 89.7%
- viability, T/C (second compound 3.16 µM, first compound 0.316 µM): 92.1%
- viability, T/C (second compound 3.16 µM, first compound 1 µM): 91.3%
- viability, T/C (second compound 3.16 µM, first compound 3.16 µM): 93.6%
- viability, T/C (second compound 3.16 µM, first compound 10 µM): 70.1%
- viability, T/C [64]: 92.2%
- viability, T/C [65]: 89.4%
- viability, T/C (second compound 10 µM, first compound 0.316 µM): 85.1%
- viability, T/C (second compound 10 µM, first compound 1 µM): 89.6%
- viability, T/C (second compound 10 µM, first compound 3.16 µM): 83.3%
- viability, T/C (second compound 10 µM, first compound 10 µM): 55.5%
